Measurements taken from patent US20250163456A1, “AGENT FOR ENHANCING PRODUCTION OF VIRAL VECTOR AND METHOD FOR PRODUCING VIRAL VECTOR” (priority 2022, published 2025).

System: HEK293 cells
Assay: Evaluation of AAV vector-producing ability by treatment with chemical substance (rAAV1 virus titer by qPCR)
Assay type: cell-based, human
Conditions: HEK293 cells producing rAAV1, serum-free E-MEM with chemical substance at various concentrations, 3 days culture, virus titer (v.g.) vs untreated control
Experimental: The cells of the immortalized cell line derived from the human embryonic kidney (HEK293 cells) purchased from ATCC (American Type Culture Collection) were cultured in E-MEM supplemented with 10% fetal bovine serum, penicillin, and streptomycin at 37° C. in the presence of 5% CO2.
The recombinant adeno-associated virus 1 (rAAV1) was prepared with the use of 3 types of plasmids: pAAV-ZsGreen1 (TaKaRa Bio), pAAV2/1, and pHelper. A mixture of 3 types of plasmids for preparation of rAAV1 was adjusted to bring the mixing ratio of DNA to Polyethylenimine Max (PEI:Polysciences) (DNA:PEI) to 1:2 in OPTI-MEM, and the reaction was allowed to proceed at room temperature for 15 minutes. […]
Genome DNA of rAAV1 was extracted to measure the virus titer. […] The virus titer was measured by real-time PCR in triplicate. qPCR was performed using primers targeting Zs-Green 1. […]
In the present example, effects of enhancing production of AAV vectors achieved with the use of chemical substances different from the chemical substances tested in Example 1 were measured in the same manner as in Example 1.
In the present comparative example, effects of enhancing production of AAV vectors were measured in the same manner as in Example 1, except for the use of ascorbic acid (2.5, 5, or 10 μg/ml) disclosed in the examples of WO 2021/138387. […]

O=C1O[C@H]([C@@H](O)CO)C(O)=C1O [ascorbic acid]
effects of enhancing the amount of production of AAV vectors: no significant differences were observed
